Measured values: paper PMC3871636 (PLoS ONE, 2013)
Where a name gives a salt, the structure may show the parent alone.

Key:
[1] = biological target: double-labeled CYP3A4 C64/C121-DY/ER (Homo sapiens, UniProt P08684, A121C/C239S/C377S/C468A/C98S/S18F); assay: Time-resolved LRET (phosphorescence lifetime measurements); details: for F1 (fraction of first exponential) / τ2 (phosphorescence decay time with ligand) / τav (average phosphorescence lifetime with ligand) / R (interprobe distance with ligand), lifetime measurements / ΔR, lifetime measurements: same ligand concentrations; for R (interprobe distance with ligand), lifetime measurements / ΔR, lifetime measurements: Table S2, protein C64/C121-ER/DY
double-labeled CYP3A4 C64/C121-DY/ER, sequence (P08684 with tags, fused parts or gaps S18F/C98S/A121C/C239S/C377S/C468A limits assumed): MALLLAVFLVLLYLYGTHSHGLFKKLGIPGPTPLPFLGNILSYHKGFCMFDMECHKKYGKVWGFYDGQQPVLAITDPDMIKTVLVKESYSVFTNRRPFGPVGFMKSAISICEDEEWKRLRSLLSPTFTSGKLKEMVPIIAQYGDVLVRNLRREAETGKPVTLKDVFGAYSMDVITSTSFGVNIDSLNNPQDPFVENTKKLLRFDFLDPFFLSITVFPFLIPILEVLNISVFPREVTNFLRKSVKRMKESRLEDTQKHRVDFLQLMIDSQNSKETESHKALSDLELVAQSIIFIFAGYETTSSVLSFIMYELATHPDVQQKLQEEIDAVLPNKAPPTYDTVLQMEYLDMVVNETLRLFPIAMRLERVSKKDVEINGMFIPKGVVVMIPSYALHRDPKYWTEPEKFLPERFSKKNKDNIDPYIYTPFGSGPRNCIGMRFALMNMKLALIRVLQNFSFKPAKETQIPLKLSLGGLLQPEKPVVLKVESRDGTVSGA
Procedure: (§1) All absorbance and fluorescence assays (including the time-resolved fluorescence measurements) were performed at a protein concentration ≤1 µM at 25°C with continuous stirring. Absorbance spectra were recorded with an S2000 rapid scanning CCD spectrometer (Ocean Optics). Ligand binding assays were done in 100 mM Na-Hepes buffer, pH 7.4, containing 0.5 mM EDTA.
(§2) Fluorescence-based ligand binding assays were done under anaerobic conditions. Anaerobiosis was achieved using an oxygen-scavenging system consisting of protecatechuate-3,4-dioxygenase (0.5 units/ml) and 5 mM protocatechuic acid. The steady state and time-resolved phosphorescence measurements were performed with the use of a Cary Eclipse fluorescence spectrophotometer (Varian/Agilent Technologies). The excitation wavelength was set to 540 nm. Spectra were taken from 650 to 860 nm with 100 µs delay.
The treatment of the time-resolved decay traces was performed using a bi-exponential approximation. The efficiency of time-resolved LRET was calculated using the equation [drawing 2] (Eq.2)
In this equation τda and τd designate the average lifetime of the excited state of the donor in the presence and absence of the acceptor, respectively. These average lifetimes are determined as τ = α1τ1+α2τ2, where τ1,2 and α1,2 stay for the lifetime and the relative amplitude of each of the two exponential terms. In our calculations of the lifetime in double-labeled C64/C468, C377/C468 and C64/C121 proteins we used the lifetimes of phosphorescence measured with the respective proteins labeled with ERIA at a label:protein ratio 2∶1 as the estimates of τd.
(§3) Distances were calculated using the equation: [drawing 3] (Eq.3) where R 0 is the Förster distance, and R is the distance between the donor and acceptor. R 0 was calculated with the use of PhotoChemCad software. In these calculations, we used the values of the orientation factor (κ^2) and the refractive index (n) of 0.667 and 1.4, respectively.

[2] = biological target: T1, double-labeled CYP3A4 (C64/C468)-DY/ER (Homo sapiens, UniProt P08684, S18F, form not given); assay: as above; details: for τ1 (phosphorescence decay time with ligand) / F1 (fraction of first exponential) / τ2 (phosphorescence decay time with ligand) / τav (average phosphorescence lifetime with ligand): Table S1; for τ1 (phosphorescence decay time with ligand): bi-exponential fit; for F1 (fraction of first exponential) / τ2 (phosphorescence decay time with ligand) / τav (average phosphorescence lifetime with ligand) / R (interprobe distance with ligand), lifetime measurements / ΔR, lifetime measurements: same ligand concentrations
T1 sequence (P08684 13-503 S18F, form open): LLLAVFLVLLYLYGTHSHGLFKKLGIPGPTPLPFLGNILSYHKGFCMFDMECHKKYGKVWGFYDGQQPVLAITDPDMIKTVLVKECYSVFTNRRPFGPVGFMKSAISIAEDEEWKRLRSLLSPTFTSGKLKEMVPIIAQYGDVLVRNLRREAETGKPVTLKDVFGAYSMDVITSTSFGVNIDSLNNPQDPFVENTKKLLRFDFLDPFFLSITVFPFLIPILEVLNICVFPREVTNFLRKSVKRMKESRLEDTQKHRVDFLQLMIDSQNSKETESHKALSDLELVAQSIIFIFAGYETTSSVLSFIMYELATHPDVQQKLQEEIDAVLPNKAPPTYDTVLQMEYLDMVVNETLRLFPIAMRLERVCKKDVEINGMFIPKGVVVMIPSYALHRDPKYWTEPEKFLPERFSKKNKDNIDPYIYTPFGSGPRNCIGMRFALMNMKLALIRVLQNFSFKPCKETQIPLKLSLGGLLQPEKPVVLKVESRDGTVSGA
Excerpt: (§4) The excitation wavelength was set to 540 nm.

[3] = biological target: T2, double-labeled CYP3A4 (C64/C468)-ER/DY (Homo sapiens, UniProt P08684, S18F, form not given); assay: as above; details: for τ1 (phosphorescence decay time with ligand) / F1 (fraction of first exponential) / τ2 (phosphorescence decay time with ligand) / τav (average phosphorescence lifetime with ligand): Table S1; for τ1 (phosphorescence decay time with ligand): bi-exponential fit; for F1 (fraction of first exponential) / τ2 (phosphorescence decay time with ligand) / τav (average phosphorescence lifetime with ligand) / R (interprobe distance with ligand), lifetime measurements / ΔR, lifetime measurements: same ligand concentrations
T2 sequence (P08684 13-503 S18F, form open): as above
Excerpt: as §4

[4] = biological target: T3, double-labeled CYP3A4 C377/C468-DY/ER (Homo sapiens, UniProt P08684, S18F, form not given); assay: as above; details: for τ1 (phosphorescence decay time with ligand) / F1 (fraction of first exponential) / τ2 (phosphorescence decay time with ligand) / τav (average phosphorescence lifetime with ligand): Table S1, protein (C377/C468)-ER/DY; for τ1 (phosphorescence decay time with ligand): bi-exponential fit; for F1 (fraction of first exponential) / τ2 (phosphorescence decay time with ligand) / τav (average phosphorescence lifetime with ligand) / R (interprobe distance with ligand), lifetime measurements / ΔR, lifetime measurements: same ligand concentrations
T3 sequence (P08684 13-503 S18F, form open): as above
Excerpt: as §4

[5] = biological target: T1, double-labeled CYP3A4 (C64/C468)-DY/ER; assay: Steady-state LRET titration (delayed emission); assay type: binding; details: for R (interprobe distance with ligand), steady-state measurements / ΔR, steady-state measurements: same ligand concentrations
Procedure: as §1, §2
(§5) Quantitative interpretation of LRET results was also based on the use of PCA applied to a series of emission spectra normalized on integral intensity. […] Intensity of the donor and acceptor fluorescence obtained in this way were used in determination of the efficiency of steady-state LRET using the equation [drawing 1] (Eq.1) where I ad is emission intensity of the acceptor, I da is the residual donor emission in the presence of acceptor (I da), Φ a and Φ d are the quantum yield of the fluorescence of acceptor and the quantum yield of the phosphorescence of donor, respectively.
as §3
(§6) When fitting the results of titration experiments, where the changes in the monitored signal A S (fraction of the enzyme in the high-spin state, intensity or the lifetime of the donor phosphorescence at a given substrate concentration) were assumed to be proportional to [ES], this equation was complemented with the offset A 0 and the scaling factor A max to yield the following relationship: [drawing 5] (Eq.5)

[6] = biological target: CYP3A4 (double-labeled (C64/C468)-DY/ER) (Homo sapiens, UniProt P08684, form not given/S18F); assay: Steady-state LRET titration (delayed emission); assay type: binding; details: human, purified double-labeled CYP3A4 (C64/C468)-DY/ER protein, pH 7.4; (C64/C468)-DY/ER; LRET titration; read-out: K d, steady-state fluorescence
CYP3A4 (double-labeled (C64/C468)-DY/ER), sequence (P08684 13-503 S18F, form open): as above
Procedure: as §1, §2, §5, §3, §6

[7] = biological target: T2, double-labeled CYP3A4 (C64/C468)-ER/DY; assay: Steady-state LRET titration (delayed emission); assay type: binding; details: for R (interprobe distance with ligand), steady-state measurements / ΔR, steady-state measurements: same ligand concentrations
Procedure: as §1, §2, §5, §3, §6

[8] = biological target: T3, double-labeled CYP3A4 C377/C468-DY/ER; assay: Steady-state LRET titration (delayed emission); assay type: binding; details: Table S2, protein C377/C468-ER/DY; for R (interprobe distance with ligand), steady-state measurements / ΔR, steady-state measurements: same ligand concentrations
Procedure: as §1, §2, §5, §3, §6

[9] = Table S1, protein (C64/C121)-ER/DY
[10] = (C64/C468)-DY/ER, nearly-saturating ligand: ANF 100 µM, bromocriptine 2.5 µM, cholesterol 50 µM, testosterone 100 µM
[11] = (C64/C468)-DY/ER, 1-PB 40 µM, ANF 100 µM, BCT 2.5 µM, cholesterol 100 µM, testosterone 100 µM
[12] = Table S2, C64/C468-DY/ER, 1-PB 40 µM, ANF 100 µM, BCT 2.5 µM, cholesterol 100 µM, testosterone 100 µM
[13] = (C64/C468)-ER/DY, nearly-saturating ligand: ANF 100 µM, bromocriptine 2.5 µM, cholesterol 50 µM, testosterone 100 µM
[14] = (C64/C468)-ER/DY, 1-PB 40 µM, ANF 100 µM, BCT 2.5 µM, cholesterol 100 µM, testosterone 100 µM
[15] = Table S2, C64/C468-ER/DY, 1-PB 40 µM, ANF 100 µM, BCT 2.5 µM, cholesterol 100 µM, testosterone 100 µM
[16] = 1-PB 40 µM, ANF 100 µM, BCT 2.5 µM, cholesterol 100 µM, testosterone 100 µM
[17] = Table S2, protein C377/C468-ER/DY

## O=c1cc(-c2ccccc2)oc2c1ccc1ccccc12 [ANF, α-naphthoflavone]
[1]; [9]
  F1 (fraction of first exponential): 43 ± 7%
  τ2 (phosphorescence decay time with ligand): 232 ± 22 µs
  τav (average phosphorescence lifetime with ligand): 159 ± 7 µs
[1]
  R (interprobe distance with ligand), lifetime measurements: 36.4 ± 0.5 Å
  ΔR, lifetime measurements: 1.3 ± 0.5 Å
[2]; [10]
  ΔELT (change in LRET efficiency), lifetime measurements: −6.8±3%
  ΔR (change in interprobe distance), lifetime measurements: 1.8±0.7 Å
[2]; [11]
  τ1 (phosphorescence decay time with ligand): 54 ± 1 µs
[2]; (C64/C468)-DY/ER
  F1 (fraction of first exponential): 45 ± 5%
  τ2 (phosphorescence decay time with ligand): 231 ± 15 µs
  τav (average phosphorescence lifetime with ligand): 154 ± 4 µs
[2]; [12]
  E (LRET efficiency with ligand), lifetime measurements: 34 ± 2%
[2]; Table S2, C64/C468-DY/ER
  R (interprobe distance with ligand), lifetime measurements: 38.6 ± 0.5 Å
  ΔR, lifetime measurements: 1.8 ± 0.5 Å
[3]; [13]
  ΔELT (change in LRET efficiency), lifetime measurements: −14.5±1%
  ΔR (change in interprobe distance), lifetime measurements: 4.1±0.2 Å
[3]; [14]
  τ1 (phosphorescence decay time with ligand): 53 ± 2 µs
[3]; (C64/C468)-ER/DY
  F1 (fraction of first exponential): 34 ± 1%
  τ2 (phosphorescence decay time with ligand): 216 ± 3 µs
  τav (average phosphorescence lifetime with ligand): 168 ± 1 µs
[3]; [15]
  E (LRET efficiency with ligand), lifetime measurements: 28 ± 1%
[3]; Table S2, C64/C468-ER/DY
  R (interprobe distance with ligand), lifetime measurements: 40.4 ± 0.1 Å
  ΔR, lifetime measurements: 4.1 ± 0.1 Å
[4]; [16]
  τ1 (phosphorescence decay time with ligand): 42 ± 10 µs
[4]
  F1 (fraction of first exponential): 28 ± 5%
  τ2 (phosphorescence decay time with ligand): 188 ± 18 µs
  τav (average phosphorescence lifetime with ligand): 147 ± 8 µs
[4]; Table S2, protein C377/C468-ER/DY, 1-PB 40 µM, ANF 100 µM, BCT 2.5 µM, cholesterol 100 µM, testosterone 100 µM
  E (LRET efficiency with ligand), lifetime measurements: 19 ± 4%
[4]; [17]
  R (interprobe distance with ligand), lifetime measurements: 43.9 ± 2.3 Å
  ΔR, lifetime measurements: 7.1 ± 2.3 Å
[5]; (C64/C468)-DY/ER
  ΔR (change in interprobe distance), steady-state fluorescence: 3.9±1.7 Å
[5]; (C64/C468)-DY/ER, from maximal relative change in donor intensity
  ΔE (change in LRET efficiency), steady-state fluorescence: −18±1%
[5]; [12]
  E (LRET efficiency with ligand), steady-state measurements: 29 ± 1%
[5]; Table S2, C64/C468-DY/ER
  R (interprobe distance with ligand), steady-state measurements: 38.8 ± 1 Å
  ΔR, steady-state measurements: 3.9 ± 1.7 Å
[6]
  Kd: 9.1 ± 2.9 µM
[7]; (C64/C468)-ER/DY
  ΔR (change in interprobe distance), steady-state fluorescence: 2.1±0.9 Å
[7]; (C64/C468)-ER/DY, from maximal relative change in donor intensity
  ΔE (change in LRET efficiency), steady-state fluorescence: −8±4%
[7]; [15]
  E (LRET efficiency with ligand), steady-state measurements: 23 ± 2%
[7]; Table S2, C64/C468-ER/DY
  R (interprobe distance with ligand), steady-state measurements: 41.2 ± 0.9 Å
  ΔR, steady-state measurements: 2.1 ± 0.9 Å
[8]; [16]
  E (LRET efficiency with ligand), steady-state measurements: 14 ± 0%
[8]
  R (interprobe distance with ligand), steady-state measurements: 45.2 ± 0.1 Å
  ΔR, steady-state measurements: 0.5 ± 0.1 Å

## CC(C)C[C@H]1C(=O)N2CCC[C@H]2[C@]2(O)O[C@](NC(=O)[C@@H]3C=C4c5cccc6[nH]c(Br)c(c56)C[C@H]4N(C)C3)(C(C)C)C(=O)N12 [Bromocriptine, Bromocriptine mesylate]
[1]; C64/C121-DY/ER, stated for both steady-state and lifetime experiments
  increase in the interprobe distance: 1.3 Å
[1]; Table S1, protein (C64/C121)-ER/DY, 1-PB 40 µM, ANF 100 µM, BCT 2.5 µM, cholesterol 100 µM, testosterone 100 µM, bi-exponential fit
  τ1 (phosphorescence decay time with ligand): 75 ± 13 µs
[1]; [9]
  F1 (fraction of first exponential): 49 ± 5%
  τ2 (phosphorescence decay time with ligand): 242 ± 15 µs
  τav (average phosphorescence lifetime with ligand): 159 ± 2 µs
[1]
  R (interprobe distance with ligand), lifetime measurements: 36.4 ± 0.1 Å
  ΔR, lifetime measurements: 1.3 ± 0.1 Å
[2]; [10]
  ΔR (change in interprobe distance), lifetime measurements: 0.3±1.0 Å
[2]; [11]
  τ1 (phosphorescence decay time with ligand): 55 ± 9 µs
[2]; (C64/C468)-DY/ER
  F1 (fraction of first exponential): 44 ± 5%
  τ2 (phosphorescence decay time with ligand): 209 ± 20 µs
  τav (average phosphorescence lifetime with ligand): 141 ± 7 µs
[2]; Table S2, C64/C468-DY/ER
  R (interprobe distance with ligand), lifetime measurements: 37.1 ± 0.8 Å
  ΔR, lifetime measurements: 0.3 ± 0.8 Å
[3]; [13]
  ΔR (change in interprobe distance), lifetime measurements: −0.3±0.6 Å
[3]; [14]
  τ1 (phosphorescence decay time with ligand): 39 ± 12 µs
[3]; (C64/C468)-ER/DY
  F1 (fraction of first exponential): 28 ± 5%
  τ2 (phosphorescence decay time with ligand): 168 ± 2 µs
  τav (average phosphorescence lifetime with ligand): 131 ± 5 µs
[3]; Table S2, C64/C468-ER/DY
  R (interprobe distance with ligand), lifetime measurements: 36.0 ± 0.5 Å
  ΔR, lifetime measurements: -0.3 ± 0.5 Å
[4]; [16]
  τ1 (phosphorescence decay time with ligand): 25 ± 9 µs
[4]
  F1 (fraction of first exponential): 20 ± 4%
  τ2 (phosphorescence decay time with ligand): 129 ± 6 µs
  τav (average phosphorescence lifetime with ligand): 108 ± 3 µs
[4]; [17]
  R (interprobe distance with ligand), lifetime measurements: 36.8± 0.4 Å
  ΔR, lifetime measurements: 0.0 ± 0.4 Å
[5]; (C64/C468)-DY/ER
  ΔR (change in interprobe distance), steady-state fluorescence: 0.2±0.2 Å
[5]; Table S2, C64/C468-DY/ER
  R (interprobe distance with ligand), steady-state measurements: 35.1 ± 0 Å
  ΔR, steady-state measurements: 0.2 ± 0.2 Å
[6]
  Kd: 0.7 ± 0.1 µM
[7]; (C64/C468)-ER/DY
  ΔR (change in interprobe distance), steady-state fluorescence: 0.5±1.6 Å
[7]; Table S2, C64/C468-ER/DY
  R (interprobe distance with ligand), steady-state measurements: 39.6 ± 1.6 Å
  ΔR, steady-state measurements: 0.5 ± 1.6 Å
[8]
  R (interprobe distance with ligand), steady-state measurements: 44.7 ± 0.1 Å
  ΔR, steady-state measurements: 0.0 ± 0.1 Å
